Measured values taken from publication PMC6364417, “Kinase inhibitor library screening identifies synergistic drug combinations effective in sensitive and resistant melanoma cells” (Journal of Experimental & Clinical Cancer Research : CR, 2019).

Assays:
Assay in all cases: Kinase inhibitor library screening, PrestoBlue cell viability, 1 or 10 μM, 72 h
501Mel cells (parental) = details: 501Mel Parental
How it was run: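 Readout: PrestoBlue signal on a monochromator plate reader, given as percent viability relative to untreated controls. Parental and drug-resistant (Vemurafenib XP, Dabrafenib GP) sublines were tested; at least duplicates per line.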

[1] = test system: 501Mel-GP cells (Dabrafenib-resistant); details: 501Mel GP
[2] = test system: 501Mel-XP cells (Vemurafenib-resistant); details: 501Mel XP
A375 cells (parental) = details: A375 Parental
[3] = test system: A375-GP cells (Dabrafenib-resistant); details: A375 GP
[4] = test system: A375-XP cells (Vemurafenib-resistant); details: A375 XP
IGR37 cells (parental) = details: IGR37 Parental
[5] = test system: IGR37-GP cells (Dabrafenib-resistant); details: IGR37 GP
[6] = test system: IGR37-XP cells (Vemurafenib-resistant); details: IGR37 XP

SMILES | cell viability (kinase inhibitor library screening) (501Mel cells (parental); 1μΜ, 72 h) | cell viability (kinase inhibitor library screening) (501Mel cells (parental); 10μΜ, 72 h) | cell viability (kinase inhibitor library screening) ([1]; 1μΜ, 72 h) | cell viability (kinase inhibitor library screening) ([1]; 10μΜ, 72 h) | cell viability (kinase inhibitor library screening) ([2]; 1μΜ, 72 h) | cell viability (kinase inhibitor library screening) ([2]; 10μΜ, 72 h) | cell viability (kinase inhibitor library screening) (A375 cells (parental); 10μΜ, 72 h) | cell viability (kinase inhibitor library screening) (A375 cells (parental); 1μΜ, 72 h) | cell viability (kinase inhibitor library screening) ([3]; 1μΜ, 72 h) | cell viability (kinase inhibitor library screening) ([3]; 10μΜ, 72 h) | cell viability (kinase inhibitor library screening) ([4]; 1μΜ, 72 h) | cell viability (kinase inhibitor library screening) ([4]; 10μΜ, 72 h) | cell viability (kinase inhibitor library screening) (IGR37 cells (parental); 1μΜ, 72 h) | cell viability (kinase inhibitor library screening) (IGR37 cells (parental); 10μΜ, 72 h) | cell viability (kinase inhibitor library screening) ([5]; 10μΜ, 72 h) | cell viability (kinase inhibitor library screening) ([6]; 10μΜ, 72 h) | also measured
NC(=O)c1ccc(N(C(N)=O)c2c(F)cccc2F)nc1-c1ccc(F)cc1F [VX-702] |  |  |  |  |  |  |  |  |  |  |  |  |  |  |  |  | Cell viability in kinase inhibitor library screening, 501Mel Parental, 10μΜ (501Mel cells (parental); 10μΜ, 72 h, in %): 97.1; Cell viability in kinase inhibitor library screening, 501Mel GP, 1μΜ ([1]; 1μΜ, 72 h, in %): 99.8; Cell viability in kinase inhibitor library screening, 501Mel GP, 10μΜ ([1]; 10μΜ, 72 h, in %): 87.7; Cell viability in kinase inhibitor library screening, 501Mel XP, 1μΜ ([2]; 1μΜ, 72 h, in %): 91.5; Cell viability in kinase inhibitor library screening, 501Mel XP, 10μΜ ([2]; 10μΜ, 72 h, in %): 83.4; Cell viability in kinase inhibitor library screening, A375 Parental, 10μΜ (A375 cells (parental); 10μΜ, 72 h): 90.0; Cell viability in kinase inhibitor library screening, A375 Parental, 1μΜ (A375 cells (parental); 1μΜ, 72 h): 102.7; Cell viability in kinase inhibitor library screening, A375 GP, 10μΜ ([3]; 10μΜ, 72 h): 97.2; Cell viability in kinase inhibitor library screening, A375 XP, 1μΜ ([4]; 1μΜ, 72 h): 104.7; Cell viability in kinase inhibitor library screening, A375 XP, 10μΜ ([4]; 10μΜ, 72 h): 104.6; Cell viability in kinase inhibitor library screening, IGR37 Parental, 10μΜ (IGR37 cells (parental); 10μΜ, 72 h, in %): 103.3; Cell viability in kinase inhibitor library screening, IGR37 GP, 10μΜ ([5]; 10μΜ, 72 h): 93.6%; Cell viability in kinase inhibitor library screening, IGR37 GP, 1μΜ ([5]; 1μΜ, 72 h, in %): 98.3; Cell viability in kinase inhibitor library screening, IGR37 XP, 10μΜ ([6]; 10μΜ, 72 h): 76.8%
CNC(=O)c1cc(Oc2ccc(NC(=O)Nc3cc(C(C)(C)C)nn3-c3ccc4ncccc4c3)c(F)c2)ccn1 [DCC-2036 (Rebastinib)] | 81.5% | 2.8% | 100.3% | 2.0% | 102.9% | 0.261% | 1.8% | 55.4% | 96.7% | 3.6% | 76.3% | 2.5% | 67.0% | 20.7% | 8.3% | 2.4% | cell viability (kinase inhibitor library screening) ([6]; 1μΜ, 72 h): 107.3%
Cc1cc(Nc2cc(N3CCN(C)CC3)nc(Sc3ccc(NC(=O)C4CC4)cc3)n2)n[nH]1 [VX-680 (MK-0457, Tozasertib)] | 85.5% | 48.7% | 85.8% | 48.3% | 74.1% | 26.8% | 26.3% | 47.5% | 45.1% | 30.5% | 56.4% | 35.5% | 89.0% | 63.5% | 11.6% | 3.9% | cell viability (kinase inhibitor library screening) ([5]; 1μΜ, 72 h): 94.7%
Cc1ccc(Nc2nccc(N(C)c3ccc4c(C)n(C)nc4c3)n2)cc1S(N)(=O)=O.Cl [Pazopanib HCl] |  |  |  |  |  |  |  |  |  |  |  |  |  |  |  |  | cell viability (kinase inhibitor library screening) (501Mel cells (parental); 1μΜ, in %): 99.1; cell viability (kinase inhibitor library screening) (501Mel cells (parental); 10μΜ, in %): 86.1; cell viability (kinase inhibitor library screening) ([1]; 1μΜ, in %): 95.6; cell viability (kinase inhibitor library screening) ([1]; 10μΜ, in %): 65.3; cell viability (kinase inhibitor library screening) ([2]; 1μΜ, in %): 88.8; cell viability (kinase inhibitor library screening) ([2]; 10μΜ, in %): 48.8; cell viability (kinase inhibitor library screening) (A375 cells (parental); 10μΜ, in %): 71.9; cell viability (kinase inhibitor library screening) ([3]; 1μΜ, in %): 98.9; cell viability (kinase inhibitor library screening) ([3]; 10μΜ, in %): 71.0; cell viability (kinase inhibitor library screening) ([4]; 10μΜ, in %): 75.2; cell viability (kinase inhibitor library screening) (IGR37 cells (parental); 1μΜ, in %): 96.1; cell viability (kinase inhibitor library screening) (IGR37 cells (parental); 10μΜ, in %): 84.7; cell viability (kinase inhibitor library screening) ([5]; 1μΜ, in %): 83.2; cell viability (kinase inhibitor library screening) ([5]; 10μΜ, in %): 61.1; cell viability (kinase inhibitor library screening) ([6]; 10μΜ, in %): 65.8
